Results published in patent publication US9969732B2, “Tetrahydroisoquinoline estrogen receptor modulators and uses thereof” (Genentech, Inc., priority 2016, dated 2018).
pEC50: −log10 of the molar value.

Biological target: T1, ER-alpha (WT) (Homo sapiens, UniProt P03372)
T1 construct: endogenous in cells; host or cells: MCF7 breast cancer cells
T1 sequence (P03372 1-595): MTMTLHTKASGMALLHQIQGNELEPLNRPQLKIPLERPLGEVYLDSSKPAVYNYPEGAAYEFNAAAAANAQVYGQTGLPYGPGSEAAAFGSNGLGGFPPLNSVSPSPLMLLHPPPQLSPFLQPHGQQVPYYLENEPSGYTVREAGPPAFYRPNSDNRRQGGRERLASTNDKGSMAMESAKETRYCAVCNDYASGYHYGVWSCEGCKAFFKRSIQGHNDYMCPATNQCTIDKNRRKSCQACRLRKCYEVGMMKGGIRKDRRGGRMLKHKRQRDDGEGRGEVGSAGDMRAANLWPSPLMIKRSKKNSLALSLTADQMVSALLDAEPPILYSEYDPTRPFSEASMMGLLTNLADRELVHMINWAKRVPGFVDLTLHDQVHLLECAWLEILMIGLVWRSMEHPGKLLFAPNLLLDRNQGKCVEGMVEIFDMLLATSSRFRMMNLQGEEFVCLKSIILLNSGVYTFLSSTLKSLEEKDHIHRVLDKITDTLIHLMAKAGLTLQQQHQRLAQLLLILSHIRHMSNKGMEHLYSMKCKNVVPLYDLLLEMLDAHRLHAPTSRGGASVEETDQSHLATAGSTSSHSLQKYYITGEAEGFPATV
Experiment: Breast Cancer Cell ERa High Content Fluorescence Imaging Degradation Assay (MCF7 HCS)
Type: cell-based
Settings: MCF7 breast cancer cells, 4 hours incubation; for pEC50: inflexion point of curve; for ERalpha (WT) MCF7 HCS (S inf): plateau of the maximal effect, DMSO and Fulvestrant define 0% and 100% changes in ESR1
Protocol: MCF7 breast cancer cells were seeded on day 1 at a density of 10,000 cells per well in 384 well poly-lysine coated tissue culture plate (Greiner #T-3101-4), in 50 μL/well RPMI (phenol red free), 10% FBS (Charcoal stripped), containing L-glutamine. […] Compounds and controls were dispensed using a Labcyte Echo acoustic dispenser to dispense compounds with a predefined serial dilution (1.8×, 10 point, in duplicate) and appropriate backfill and control compounds (final total volume transferred was 417.5 nL and compound dispense volume ranges from 2.5 nL to 417.5 nL; 0.84% DMSO (v/v) final), ultimately producing a concentration range from 0.05 nM to 835 nM. Cell plates were incubated at 37° C., for 4 hours. Fixation and permeabilization were carried out using a Biotek EL406 plate washer and dispenser as follows. Cells were fixed by addition of 15 μL of 16% paraformaldehyde (Electron Microscopy Sciences #15710-S) directly to the 50 μL cell culture medium in each well using the peristaltic pump 5 μL cassette on a Biotek EL406 (final concentration of formaldehyde was 3.7% w/v). Samples were incubated 30 minutes. Well contents was aspirated and 50 μL/well of Phosphate Buffered Saline (PBS) containing 0.5% w/v bovine serum albumen, 0.5% v/v Triton X-100 (Antibody Dilution Buffer) was added to each well. Samples were incubated for 30 minutes. Well contents were aspirated and washed 3 times with 100 μL/well of PBS. Immunofluorescence staining of estrogen receptor alpha (ESR1) was carried out using a Biotek EL406 plate washer and dispenser as follows. The well supernatant was aspirated from the wells and 25 μL/well of anti-ESR1 mAb (F10) (Santa Cruz sc-8002) diluted 1:1000 in Antibody Dilution Buffer was dispensed. Samples were incubated for 2 hours at room temperature. Samples were washed 4 times with 100 μL/well of PBS. 25 μL (microliters)/well of secondary antibody solution (Alexafluor® 488 conjugate anti-mouse IgG (LifeTechnologies #A21202) diluted 1:1000 and Hoechst 33342 1 μg/mL diluted in Antibody Dilution Buffer) were dispensed into each well. Samples were incubated for 2 hours at room temperature. Samples were washed 3 times with 100 μL/well of PBS using a Biotek EL406. Quantitative fluorescence imaging of ESR1 was carried out using a Cellomics Arrayscan V® (Thermo). Fluorescence images of the samples (Channel 1: XF53 Hoechst (DNA stain); Channel 2: XF53 FITC (ESR1 stain)) were acquired using a Cellomics VTI Arrayscan using the Bioapplication “Compartmental Analysis” using the auto-exposure (based on DMSO control wells) setting “peak target percentile” set to 25% target saturation for both channels. Channel 1 (DNA stain) was used to define the nuclear region (Circ). Measurements of “Mean_CircAvgIntCh2”, which is the Alexafluor 488 fluorescence intensity (ESR1) within the nuclear region, was measured on a per cell basis and averaged over all the measured cells. Data analysis was carried out using Genedata Screener Software, with DMSO and 5 nM Fulvestrant treated samples being used to define the 0% and 100% changes in ESR1. The “Robust Fit” method was used to define the inflexion point of curve (EC50) and the plateau of the maximal effect (Sinf).

C[C@@]1(c2ccc(OCCN3CC(CF)C3)cc2)c2ccc(O)cc2CCN1CC(F)(F)CO [Example 130, (R)-2-(2,2-difluoro-3-hydroxypropyl)-1-(4-(2-(3-(fluoromethyl)azetidin-1-yl)ethoxy)phenyl)-1-methyl-1,2,3,4-tetrahydroisoquinolin-6-ol]
pEC50: 10.38
ERalpha (WT) MCF7 HCS (S inf): −101%

Oc1ccc2c(c1)CCN(CC(F)(F)F)[C@H]2c1c(F)cc(OCCN2CC(CF)C2)cc1F [Example 133, (1R)-1-[2,6-difluoro-4-[2-[3-(fluoromethyl)azetidin-1-yl]ethoxy]phenyl]-2-(2,2,2-trifluoroethyl)-3,4-dihydro-1H-isoquinolin-6-ol]
pEC50: 7.77
ERalpha (WT) MCF7 HCS (S inf): −90%

Oc1ccc2c(c1)CCN(CC(F)(F)F)[C@@H]2c1c(F)cc(OCCN2CC(CF)C2)cc1F [Example 134, (1S)-1-[2,6-difluoro-4-[2-[3-(fluoromethyl)azetidin-1-yl]ethoxy]phenyl]-2-(2,2,2-trifluoroethyl)-3,4-dihydro-1H-isoquinolin-6-ol]
pEC50: 10.89
ERalpha (WT) MCF7 HCS (S inf): −98%

C[C@@H](CN1CCc2cc(O)ccc2[C@]1(C)c1ccc(OCCN2CC(CF)C2)cc1)C(=O)O [Example 135, (S)-3-((S)-1-(4-(2-(3-(fluoromethyl)azetidin-1-yl)ethoxy)phenyl)-6-hydroxy-1-methyl-3,4-dihydroisoquinolin-2(1H)-yl)-2-methylpropanoic acid]
pEC50: ≤ 7.00

C[C@@H](CN1CCc2cc(O)ccc2[C@@]1(C)c1ccc(OCCN2CC(CF)C2)cc1)C(=O)O [Example 136, (S)-3-((R)-1-(4-(2-(3-(fluoromethyl)azetidin-1-yl)ethoxy)phenyl)-6-hydroxy-1-methyl-3,4-dihydroisoquinolin-2(1H)-yl)-2-methylpropanoic acid]
pEC50: ≤ 7.00

C[C@H](CN1CCc2cc(O)ccc2[C@@]1(C)c1ccc(OCCN2CC(CF)C2)cc1)C(=O)O [Example 137, (R)-3-((R)-1-(4-(2-(3-(fluoromethyl)azetidin-1-yl)ethoxy)phenyl)-6-hydroxy-1-methyl-3,4-dihydroisoquinolin-2(1H)-yl)-2-methylpropanoic acid]
pEC50: 7.40
ERalpha (WT) MCF7 HCS (S inf): −45%

C[C@H](CN1CCc2cc(O)ccc2[C@]1(C)c1ccc(OCCN2CC(CF)C2)cc1)C(=O)O [Example 138, (R)-3-((S)-1-(4-(2-(3-(fluoromethyl)azetidin-1-yl)ethoxy)phenyl)-6-hydroxy-1-methyl-3,4-dihydroisoquinolin-2(1H)-yl)-2-methylpropanoic acid]
pEC50: ≤ 7.00

NC(=O)c1ccc2c(c1)CCN(CC(F)(F)F)[C@H]2c1ccc(OCCN2CC(CF)C2)cc1 [Example 141, (1S)-1-[4-[2-[3-(fluoromethyl)azetidin-1-yl]ethoxy]phenyl]-2-(2,2,2-trifluoroethyl)-3,4-dihydro-1H-isoquinoline-6-carboxamide]
pEC50: ≤ 7.00

NC(=O)c1ccc2c(c1)CCN(CC(F)(F)F)[C@@H]2c1ccc(OCCN2CC(CF)C2)cc1 [Example 142, (1R)-1-[4-[2-[3-(fluoromethyl)azetidin-1-yl]ethoxy]phenyl]-2-(2,2,2-trifluoroethyl)-3,4-dihydro-1H-isoquinoline-6-carboxamide]
pEC50: 7.54
ERalpha (WT) MCF7 HCS (S inf): −79%

FCC1CN(CCOc2ccc([C@H]3c4ccc(-c5cn[nH]c5)cc4CCN3CC(F)(F)F)cc2)C1 [Example 145, (1S)-1-[4-[2-[3-(fluoromethyl)azetidin-1-yl]ethoxy]phenyl]-6-(1H-pyrazol-4-yl)-2-(2,2,2-trifluoroethyl)-3,4-dihydro-1H-isoquinoline]
pEC50: ≤ 7.00
ERalpha (WT) MCF7 HCS (S inf): −100%

FCC1CN(CCOc2ccc([C@@H]3c4ccc(-c5cn[nH]c5)cc4CCN3CC(F)(F)F)cc2)C1 [Example 146, (1R)-1-[4-[2-[3-(fluoromethyl)azetidin-1-yl]ethoxy]phenyl]-6-(1H-pyrazol-4-yl)-2-(2,2,2-trifluoroethyl)-3,4-dihydro-1H-isoquinoline]
pEC50: 9.25
ERalpha (WT) MCF7 HCS (S inf): −95%

FCC1CN(CCOc2ccc([C@H]3c4ccc(N5CCOCC5)cc4CCN3CC(F)(F)F)cc2)C1 [Example 147, 4-[(1S)-1-[4-[2-[3-(fluoromethyl)azetidin-1-yl]ethoxy]phenyl]-2-(2,2,2-trifluoroethyl)-3,4-dihydro-1H-isoquinolin-6-yl]morpholine]
pEC50: ≤ 7.00

FCC1CN(CCOc2ccc([C@@H]3c4ccc(N5CCOCC5)cc4CCN3CC(F)(F)F)cc2)C1 [Example 148, 4-[(1R)-1-[4-[2-[3-(fluoromethyl)azetidin-1-yl]ethoxy]phenyl]-2-(2,2,2-trifluoroethyl)-3,4-dihydro-1H-isoquinolin-6-yl]morpholine]
pEC50: 7.92
ERalpha (WT) MCF7 HCS (S inf): −89%

OCc1ccc2c(c1)CCN(CC(F)(F)F)[C@@H]2c1ccc(OCCN2CC(CF)C2)cc1 [Example 150, [(1R)-1-[4-[2-[3-(fluoromethyl)azetidin-1-yl]ethoxy]phenyl]-2-(2,2,2-trifluoroethyl)-3,4-dihydro-1H-isoquinolin-6-yl]methanol]
pEC50: 8.77
ERalpha (WT) MCF7 HCS (S inf): −100%

FCC1CN(CCOc2ccc([C@H]3c4ccc(-c5cc[nH]n5)cc4CCN3CC(F)(F)F)cc2)C1 [Example 151, (1S)-1-[4-[2-[3-(fluoromethyl)azetidin-1-yl]ethoxy]phenyl]-6-(1H-pyrazol-3-yl)-2-(2,2,2-trifluoroethyl)-3,4-dihydro-1H-isoquinoline]
pEC50: ≤ 7.00

FCC1CN(CCOc2ccc([C@@H]3c4ccc(-c5cc[nH]n5)cc4CCN3CC(F)(F)F)cc2)C1 [Example 152, (1R)-1-[4-[2-[3-(fluoromethyl)azetidin-1-yl]ethoxy]phenyl]-6-(1H-pyrazol-3-yl)-2-(2,2,2-trifluoroethyl)-3,4-dihydro-1H-isoquinoline]
pEC50: 7.77
ERalpha (WT) MCF7 HCS (S inf): −91%

CC1(C)Cc2cc(O)ccc2[C@H](c2ccc(OCCN3CC(CF)C3)cc2)N1CC(F)(F)F [Example 157, (S)-1-(4-(2-(3-(Fluoromethyl)azetidin-1-yl)ethoxy)phenyl)-3,3-dimethyl-2-(2,2,2-trifluoroethyl)-1,2,3,4-tetrahydroisoquinolin-6-ol]
pEC50: 9.32
ERalpha (WT) MCF7 HCS (S inf): −98%

C[C@@H]1Cc2cc(C(C)(C)O)ccc2[C@@H](c2ccc(OCCN3CC(CF)C3)cc2)N1CC(F)(F)F [Example 161, 2-((1R,3R)-1-(4-(2-(3-(Fluoromethyl)azetidin-1-yl)ethoxy)phenyl)-3-methyl-2-(2,2,2-trifluoroethyl)-1,2,3,4-tetrahydroisoquinolin-6-yl)propan-2-ol]
pEC50: 7.96
ERalpha (WT) MCF7 HCS (S inf): −82%

C[C@H]1Cc2cc(C(C)(C)O)ccc2[C@H](c2ccc(OCCN3CC(CF)C3)cc2)N1CC(F)(F)F [Example 162, 2-((1S,3S)-1-(4-(2-(3-(Fluoromethyl)azetidin-1-yl)ethoxy)phenyl)-3-methyl-2-(2,2,2-trifluoroethyl)-1,2,3,4-tetrahydroisoquinolin-6-yl)propan-2-ol]
pEC50: 6.55
